The values below come from ChEMBL document CHEMBL1148870, “Novel inhibitors of VEGF receptors-1 and -2 based on azole-5-carboxamide templates” (Bioorg Med Chem Lett, 2007).

pIC50: −log10 of the molar value.

Experiment [1] has as its target Vascular endothelial growth factor receptor 1 (Homo sapiens, UniProt P17948). Briefly: Inhibition of VEGFR1 assessed as inhibition of phosphorylation in presence of 2 uM ATP by HTRF assay. The format is functional. (TR-FRET usually uses a lanthanide donor and a delayed reading to cut background.)
In experiment [2] the target is T1, Vascular endothelial growth factor receptor 2 (Homo sapiens, UniProt P35968). Briefly: Inhibition of VEGFR2 assessed as inhibition of phosphorylation in presence of 2 uM ATP by HTRF assay. The format is functional.
The target in experiment [3] is T1, Vascular endothelial growth factor receptor 2. Briefly: Inhibition of VEGFR2 assessed as inhibition of phosphorylation in human 293 cells by cell-based ELISA. The format is functional, HEK293. Background: An ELISA detects its analyte on a solid surface through an enzyme-linked reagent.
Experiment [4] deals with Insulin-like growth factor 1 receptor (Homo sapiens) (UniProt P08069). The experiment can be described thus: Inhibition of IGF1R at 10 uM. More on the design: scale not given: the % may be the effect or the level left.
Sequence of Insulin-like growth factor 1 receptor (Homo sapiens) (P08069 31-736 limits assumed): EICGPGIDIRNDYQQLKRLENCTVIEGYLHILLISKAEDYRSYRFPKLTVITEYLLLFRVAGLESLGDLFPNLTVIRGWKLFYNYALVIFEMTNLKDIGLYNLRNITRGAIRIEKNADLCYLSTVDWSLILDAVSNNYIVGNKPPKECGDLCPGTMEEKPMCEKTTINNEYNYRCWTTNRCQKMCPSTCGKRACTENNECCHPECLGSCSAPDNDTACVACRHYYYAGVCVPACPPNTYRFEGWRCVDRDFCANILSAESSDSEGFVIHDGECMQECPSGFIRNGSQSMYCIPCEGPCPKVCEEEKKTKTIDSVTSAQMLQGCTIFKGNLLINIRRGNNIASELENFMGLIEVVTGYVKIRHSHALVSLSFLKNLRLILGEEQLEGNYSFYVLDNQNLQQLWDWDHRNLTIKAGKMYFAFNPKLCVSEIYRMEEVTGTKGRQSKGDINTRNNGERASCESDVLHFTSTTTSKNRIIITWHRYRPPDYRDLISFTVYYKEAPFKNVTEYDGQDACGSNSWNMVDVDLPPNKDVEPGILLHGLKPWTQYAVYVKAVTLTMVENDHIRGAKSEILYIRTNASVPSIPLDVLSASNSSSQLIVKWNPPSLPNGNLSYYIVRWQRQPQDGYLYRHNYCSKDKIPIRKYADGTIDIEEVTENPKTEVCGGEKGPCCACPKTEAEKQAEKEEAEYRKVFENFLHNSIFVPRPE
Sequence of Insulin-like growth factor 1 receptor (Homo sapiens) (P08069 741-1367 limits assumed): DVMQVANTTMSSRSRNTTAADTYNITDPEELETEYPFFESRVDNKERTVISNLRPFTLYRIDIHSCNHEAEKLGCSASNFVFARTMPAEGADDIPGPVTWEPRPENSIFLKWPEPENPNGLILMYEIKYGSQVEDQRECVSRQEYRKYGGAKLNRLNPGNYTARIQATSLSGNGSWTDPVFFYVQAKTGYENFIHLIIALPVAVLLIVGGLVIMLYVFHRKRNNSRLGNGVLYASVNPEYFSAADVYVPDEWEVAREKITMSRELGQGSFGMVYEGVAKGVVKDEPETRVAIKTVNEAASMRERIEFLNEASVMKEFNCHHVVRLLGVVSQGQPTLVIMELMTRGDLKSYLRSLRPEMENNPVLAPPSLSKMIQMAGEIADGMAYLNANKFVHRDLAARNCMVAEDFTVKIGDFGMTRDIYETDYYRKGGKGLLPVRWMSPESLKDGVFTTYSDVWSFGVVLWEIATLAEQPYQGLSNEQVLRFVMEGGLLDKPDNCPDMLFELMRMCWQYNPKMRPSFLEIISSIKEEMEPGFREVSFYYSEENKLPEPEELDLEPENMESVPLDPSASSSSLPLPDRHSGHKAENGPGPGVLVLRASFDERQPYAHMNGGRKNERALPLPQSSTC
The species entered for experiment [5] is Homo sapiens. Briefly: Inhibition of InR at 10 uM. Set-up: scale not given: the % may be the effect or the level left.
Experiment [6] has as its target Fibroblast growth factor receptor 1 (Homo sapiens) (UniProt P11362). The experiment can be described thus: Inhibition of FGFR1 at 10 uM. Set-up: scale not given: the % may be the effect or the level left.
The target of experiment [7] is Receptor-type tyrosine-protein kinase FLT3 (Homo sapiens) (UniProt P36888). The experiment can be described thus: Inhibition of Flt3 at 10 uM. More on the design: scale not given: the % may be the effect or the level left.
Sequence of Receptor-type tyrosine-protein kinase FLT3 (Homo sapiens) (P36888 whole entry): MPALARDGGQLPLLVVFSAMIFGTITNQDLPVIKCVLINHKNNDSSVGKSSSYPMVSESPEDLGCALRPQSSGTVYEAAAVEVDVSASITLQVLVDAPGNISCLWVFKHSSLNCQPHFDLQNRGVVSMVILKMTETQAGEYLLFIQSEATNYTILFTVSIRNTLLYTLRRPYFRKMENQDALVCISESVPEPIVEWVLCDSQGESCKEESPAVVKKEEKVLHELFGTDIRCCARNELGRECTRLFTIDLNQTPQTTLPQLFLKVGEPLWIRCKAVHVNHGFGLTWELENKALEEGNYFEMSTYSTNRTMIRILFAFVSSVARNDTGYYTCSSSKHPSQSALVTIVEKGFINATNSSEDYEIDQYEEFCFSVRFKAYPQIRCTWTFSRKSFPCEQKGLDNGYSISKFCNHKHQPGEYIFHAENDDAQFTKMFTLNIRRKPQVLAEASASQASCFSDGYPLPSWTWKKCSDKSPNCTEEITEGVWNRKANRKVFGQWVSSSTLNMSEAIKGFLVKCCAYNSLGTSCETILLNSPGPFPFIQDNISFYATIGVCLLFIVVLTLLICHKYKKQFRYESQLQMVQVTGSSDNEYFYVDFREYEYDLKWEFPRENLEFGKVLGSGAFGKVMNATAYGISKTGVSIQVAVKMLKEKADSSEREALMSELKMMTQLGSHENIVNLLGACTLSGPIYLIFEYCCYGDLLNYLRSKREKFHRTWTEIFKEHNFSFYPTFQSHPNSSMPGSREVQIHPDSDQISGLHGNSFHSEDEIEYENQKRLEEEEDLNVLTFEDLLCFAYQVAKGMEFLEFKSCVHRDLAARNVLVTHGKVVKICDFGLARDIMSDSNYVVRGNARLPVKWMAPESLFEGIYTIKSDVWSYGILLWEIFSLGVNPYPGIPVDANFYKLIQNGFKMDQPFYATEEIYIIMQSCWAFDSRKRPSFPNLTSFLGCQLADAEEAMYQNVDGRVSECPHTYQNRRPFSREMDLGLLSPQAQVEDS
The target of experiment [8] is Vascular endothelial growth factor receptor 3 (Homo sapiens) (UniProt P35916). The experiment can be described thus: Inhibition of Flt4 at 10 uM. More on the design: scale not given: the % may be the effect or the level left.
Sequence of Vascular endothelial growth factor receptor 3 (Homo sapiens) (P35916 whole entry): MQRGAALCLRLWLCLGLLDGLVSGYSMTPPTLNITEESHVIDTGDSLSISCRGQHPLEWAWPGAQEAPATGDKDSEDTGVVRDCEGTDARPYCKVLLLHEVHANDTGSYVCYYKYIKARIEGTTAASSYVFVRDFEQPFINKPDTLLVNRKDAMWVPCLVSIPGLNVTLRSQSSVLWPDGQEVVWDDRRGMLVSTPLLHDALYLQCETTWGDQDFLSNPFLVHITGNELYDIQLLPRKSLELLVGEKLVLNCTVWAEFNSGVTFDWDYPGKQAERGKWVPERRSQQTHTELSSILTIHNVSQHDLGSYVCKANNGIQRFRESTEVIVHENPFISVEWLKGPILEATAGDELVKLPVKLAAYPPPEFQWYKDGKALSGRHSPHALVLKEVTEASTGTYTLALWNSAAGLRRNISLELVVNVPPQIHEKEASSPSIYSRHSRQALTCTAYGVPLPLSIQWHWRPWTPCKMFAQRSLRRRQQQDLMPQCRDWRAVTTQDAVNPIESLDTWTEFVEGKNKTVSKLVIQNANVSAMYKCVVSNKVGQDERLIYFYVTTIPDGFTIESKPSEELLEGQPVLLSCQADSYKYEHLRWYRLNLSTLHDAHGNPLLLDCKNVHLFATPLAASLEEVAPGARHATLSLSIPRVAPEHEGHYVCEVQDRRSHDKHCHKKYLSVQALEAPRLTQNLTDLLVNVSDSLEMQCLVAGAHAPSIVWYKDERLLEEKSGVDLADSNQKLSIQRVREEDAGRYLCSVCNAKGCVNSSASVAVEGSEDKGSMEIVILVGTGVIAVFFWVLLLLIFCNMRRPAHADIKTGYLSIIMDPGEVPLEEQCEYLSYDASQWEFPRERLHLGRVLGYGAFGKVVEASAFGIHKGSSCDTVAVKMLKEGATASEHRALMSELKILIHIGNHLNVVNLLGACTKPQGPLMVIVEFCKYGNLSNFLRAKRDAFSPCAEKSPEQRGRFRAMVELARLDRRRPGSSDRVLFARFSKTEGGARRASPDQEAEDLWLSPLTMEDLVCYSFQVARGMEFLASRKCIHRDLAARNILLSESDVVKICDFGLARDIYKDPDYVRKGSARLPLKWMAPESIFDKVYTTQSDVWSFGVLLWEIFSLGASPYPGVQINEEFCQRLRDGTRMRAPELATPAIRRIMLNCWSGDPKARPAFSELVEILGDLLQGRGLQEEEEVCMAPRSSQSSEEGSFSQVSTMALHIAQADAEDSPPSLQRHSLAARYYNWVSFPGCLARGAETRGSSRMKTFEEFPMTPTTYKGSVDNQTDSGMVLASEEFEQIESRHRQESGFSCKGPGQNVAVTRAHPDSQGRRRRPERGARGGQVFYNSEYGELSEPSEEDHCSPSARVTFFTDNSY
Experiment [9] deals with Epidermal growth factor receptor (Homo sapiens) (UniProt P00533). Briefly: Inhibition of ErbB1 at 10 uM. More on the design: scale not given: the % may be the effect or the level left.
Experiment [10] concerns the target Receptor tyrosine-protein kinase erbB-2 (Homo sapiens) (UniProt P04626). The experiment can be described thus: Inhibition of ErbB2/Her2 at 10 uM. Set-up: scale not given: the % may be the effect or the level left.
In experiment [11] the target is Hepatocyte growth factor receptor (Homo sapiens) (UniProt P08581). The experiment can be described thus: Inhibition of cMet at 10 uM. Set-up: scale not given: the % may be the effect or the level left.
Experiment [12] is filed under the species Homo sapiens. Briefly: Inhibition of PKA at 10 uM. More on the design: scale not given: the % may be the effect or the level left.
In experiment [13] the target is Glycogen synthase kinase-3 beta (Homo sapiens) (UniProt P49841). Briefly: Inhibition of GSK3-beta at 10 uM. More on the design: scale not given: the % may be the effect or the level left.
Sequence of Glycogen synthase kinase-3 beta (Homo sapiens) (P49841 whole entry, looked up): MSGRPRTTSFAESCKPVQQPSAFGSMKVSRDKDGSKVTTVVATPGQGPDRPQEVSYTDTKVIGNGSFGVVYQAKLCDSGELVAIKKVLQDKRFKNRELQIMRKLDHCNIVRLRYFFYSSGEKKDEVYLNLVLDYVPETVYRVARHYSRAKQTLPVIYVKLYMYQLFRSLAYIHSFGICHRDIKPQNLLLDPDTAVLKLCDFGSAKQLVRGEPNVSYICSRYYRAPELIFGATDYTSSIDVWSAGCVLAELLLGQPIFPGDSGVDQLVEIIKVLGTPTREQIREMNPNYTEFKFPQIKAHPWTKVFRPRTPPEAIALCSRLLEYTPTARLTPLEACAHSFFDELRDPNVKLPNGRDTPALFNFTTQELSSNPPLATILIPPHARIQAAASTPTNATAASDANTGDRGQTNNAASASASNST
The target of experiment [14] is RAC-alpha serine/threonine-protein kinase (Homo sapiens) (UniProt P31749). Briefly: Inhibition of PKB/Akt at 10 uM. More on the design: scale not given: the % may be the effect or the level left.
Experiment [15] is filed under the species Homo sapiens. Briefly: Inhibition of bcr-Abl at 10 uM. More on the design: scale not given: the % may be the effect or the level left.
Experiment [16] is filed under the species Homo sapiens. Briefly: Inhibition of Cdk1 at 10 uM. More on the design: scale not given: the % may be the effect or the level left.
The target of experiment [17] is RAF proto-oncogene serine/threonine-protein kinase (Homo sapiens) (UniProt P04049). The experiment can be described thus: Inhibition of Raf1 at 10 uM. More on the design: scale not given: the % may be the effect or the level left.
Sequence of RAF proto-oncogene serine/threonine-protein kinase (Homo sapiens) (P04049 whole entry): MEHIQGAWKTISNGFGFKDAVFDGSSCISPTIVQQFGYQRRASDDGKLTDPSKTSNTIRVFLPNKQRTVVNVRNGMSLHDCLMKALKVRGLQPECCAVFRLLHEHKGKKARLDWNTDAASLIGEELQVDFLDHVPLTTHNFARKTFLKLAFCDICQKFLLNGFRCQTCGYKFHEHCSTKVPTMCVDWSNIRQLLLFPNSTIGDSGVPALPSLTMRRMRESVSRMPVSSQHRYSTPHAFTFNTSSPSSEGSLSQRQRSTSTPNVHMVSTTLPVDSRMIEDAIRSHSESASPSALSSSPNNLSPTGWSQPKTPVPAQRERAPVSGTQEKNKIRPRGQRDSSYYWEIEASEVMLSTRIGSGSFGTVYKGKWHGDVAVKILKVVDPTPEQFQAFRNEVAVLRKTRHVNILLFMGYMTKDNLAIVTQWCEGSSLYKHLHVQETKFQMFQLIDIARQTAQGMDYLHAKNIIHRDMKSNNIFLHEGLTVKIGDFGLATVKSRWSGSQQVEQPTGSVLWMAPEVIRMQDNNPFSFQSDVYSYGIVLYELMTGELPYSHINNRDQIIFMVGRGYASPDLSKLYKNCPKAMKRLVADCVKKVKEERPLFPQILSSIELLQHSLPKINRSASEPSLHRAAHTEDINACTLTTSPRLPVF
In experiment [18] the target is Cyclin-dependent kinase 2 (Homo sapiens) (UniProt P24941). Briefly: Inhibition of Cdk2 at 10 uM. Set-up: scale not given: the % may be the effect or the level left.

As for `O=C(Nc1ccc(C(F)(F)F)c(Cl)c1)c1nnnn1CCc1ccncc1`, the pIC50 in experiment [1], in experiment [2] and in [3] was less than 5.00 in each case. In addition, the Activity is greater than 30% in experiment [4]; greater than 30% in the experiment filed under Homo sapiens [5]; greater than 30% in experiment [6]; greater than 30% in [7]; greater than 30% in experiment [8]; less than 30% in experiment [9]. The Activity (in [10]; in [11]; in the experiment listed under Homo sapiens [12]; in experiment [13]; in experiment [14]; in the experiment listed under Homo sapiens [15]) was greater than 30% each time. Besides, the Activity (in the experiment listed under Homo sapiens [16]; in [17]; in experiment [18]) was greater than 30% in each case.
With `O=C(Nc1ccc(-c2ccccc2)cc1)c1ccnn1CCc1ccncc1`, the pIC50 (in general, the negative decadic logarithm of the IC50, by convention in mol/L) is 5.65 in experiment [1], 6.02 in experiment [2] and 5.81 in experiment [3]. Moreover, the Activity in [4] was greater than 30%; in the experiment filed under Homo sapiens [5], greater than 30%; in experiment [6], greater than 30%; in experiment [7], greater than 30%; in experiment [8] it was greater than 30%; in experiment [9], less than 30%. Also, the Activity (in [10]; in [11]; in the experiment listed under Homo sapiens [12]; in experiment [13]; in [14]; in the experiment filed under Homo sapiens [15]) was greater than 30% each time. Moreover, the Activity (in the experiment filed under Homo sapiens [16]; in [17]; in experiment [18]) was greater than 30% throughout.
Consider `O=C(Nc1ccc2cn[nH]c2c1)c1ccnn1CCc1ccncc1`, for which the pIC50 in [1], in [2] and in [3] was less than 5.00 throughout. In addition, the Activity in experiment [4] is greater than 30%; in the experiment listed under Homo sapiens [5], greater than 30%; in experiment [6] it was greater than 30%; in experiment [7], greater than 30%; in [8], greater than 30%; in experiment [9], less than 30%. Besides, the Activity (in experiment [10]; in [11]; in the experiment filed under Homo sapiens [12]; in experiment [13]; in experiment [14]; in the experiment filed under Homo sapiens [15]) was greater than 30% each time. Also, the Activity (in the experiment listed under Homo sapiens [16]; in [17]; in [18]) was greater than 30% throughout.
As for `Cc1nn(CCc2ccncc2)c(C(=O)Nc2ccc(Cl)cc2)c1C`, the pIC50 in [1], in [2] and in [3] was less than 5.00 throughout. For the same compound, the Activity is greater than 30% in [4]; greater than 30% in the experiment filed under Homo sapiens [5]; greater than 30% in experiment [6]; greater than 30% in experiment [7]; greater than 30% in experiment [8]; less than 30% in experiment [9]. In addition, the Activity (in experiment [10]; in [11]; in the experiment listed under Homo sapiens [12]; in [13]; in [14]; in the experiment listed under Homo sapiens [15]) was greater than 30% throughout. For the same compound, the Activity (in the experiment listed under Homo sapiens [16]; in experiment [17]; in [18]) was greater than 30% throughout.
As for `O=C(Nc1ccc(C(F)(F)F)cc1)c1nnnn1CCc1ccncc1`, the pIC50 is 5.97 in experiment [1], 6.07 in [2] and 5.53 in experiment [3]. Further, the Activity in experiment [4] was greater than 30%; in the experiment filed under Homo sapiens [5], greater than 30%; in [6], greater than 30%; in experiment [7], greater than 30%; in experiment [8], greater than 30%; in experiment [9] it was less than 30%. Besides, the Activity (in experiment [10]; in experiment [11]; in the experiment filed under Homo sapiens [12]; in [13]; in experiment [14]; in the experiment listed under Homo sapiens [15]) was greater than 30% in each case. Also, the Activity (in the experiment filed under Homo sapiens [16]; in [17]; in [18]) was greater than 30% throughout.
As for `O=C(Nc1ccc(OC(F)(F)F)cc1)c1nc2ccccc2n1CCc1ccncc1`, the pIC50 in experiment [1], in [2] and in experiment [3] was less than 5.00 each time. The Activity was greater than 30% in experiment [4]; greater than 30% in the experiment filed under Homo sapiens [5]; greater than 30% in [6]; greater than 30% in experiment [7]; greater than 30% in [8]; less than 30% in experiment [9]. Further, the Activity (in [10]; in experiment [11]; in the experiment listed under Homo sapiens [12]; in experiment [13]; in experiment [14]; in the experiment listed under Homo sapiens [15]) was greater than 30% in each case. The Activity (in the experiment filed under Homo sapiens [16]; in experiment [17]; in [18]) was greater than 30% each time.
`O=C(Nc1ccc(C(F)(F)F)cc1)c1nccn1CCc1ccncc1`: the pIC50 in [1] was 6.10; in experiment [2] it was 6.33; in experiment [3], 5.78. Also, the Activity in experiment [4] was greater than 30%; in the experiment listed under Homo sapiens [5], greater than 30%; in experiment [6], greater than 30%; in [7], greater than 30%; in experiment [8] it was greater than 30%; in experiment [9] it was less than 30%. For the same compound, the Activity (in [10]; in experiment [11]; in the experiment listed under Homo sapiens [12]; in experiment [13]; in [14]; in the experiment listed under Homo sapiens [15]) was greater than 30% each time. Besides, the Activity (in the experiment listed under Homo sapiens [16]; in [17]; in experiment [18]) was greater than 30% each time.
Turning to `Cc1cc(C(=O)Nc2ccc(Cl)cc2)n(CCc2ccncc2)n1`, the pIC50 was 5.91 in [1], 6.11 in [2] and 5.60 in [3]. The Activity in experiment [4] was greater than 30%; in the experiment filed under Homo sapiens [5], greater than 30%; in [6], greater than 30%; in experiment [7], greater than 30%; in experiment [8], greater than 30%; in experiment [9] it was less than 30%. Besides, the Activity (in [10]; in [11]; in the experiment filed under Homo sapiens [12]; in experiment [13]; in experiment [14]; in the experiment listed under Homo sapiens [15]) was greater than 30% each time. Besides, the Activity (in the experiment filed under Homo sapiens [16]; in experiment [17]; in experiment [18]) was greater than 30% each time.
Consider `Cc1nn(CCc2ccncc2)c(C(=O)Nc2ccc(OC(F)(F)F)cc2)c1C`, for which the negative-log IC50 (pIC50) in experiment [1], in [2] and in experiment [3] was less than 5.00 throughout. Also, the Activity is greater than 30% in experiment [4]; greater than 30% in the experiment filed under Homo sapiens [5]; greater than 30% in experiment [6]; greater than 30% in experiment [7]; greater than 30% in experiment [8]; less than 30% in experiment [9]. Besides, the Activity (in [10]; in [11]; in the experiment listed under Homo sapiens [12]; in experiment [13]; in experiment [14]; in the experiment listed under Homo sapiens [15]) was greater than 30% each time. The Activity (in the experiment filed under Homo sapiens [16]; in experiment [17]; in [18]) was greater than 30% throughout.
